Results published in PubChem BioAssay (NCI).
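Five compound concentrations were applied to cells in 96-well plates for 48 hours; endpoints were derived by simple linear interpolation of the resulting dose-response curve. GI50: concentration for 50% inhibition of growth. TGI is the concentration that stops growth completely.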

How the values were obtained:
Experiment in all cases: NCI-60 cell line screen, 48 h
KM12 colon = system: KM12 colon
COLO 205 colon = system: COLO 205 colon
SNB-19 CNS = system: SNB-19 CNS
SNB-75 CNS = system: SNB-75 CNS
NCI-H23 lung = system: NCI-H23 lung
HT29 colon = system: HT29 colon
LOX IMVI melanoma = system: LOX IMVI melanoma
BT-549 breast = system: BT-549 breast
UO-31 renal = system: UO-31 renal
SR leukemia = system: SR leukemia

Row | SMILES | TGI (KM12 colon) | TGI (COLO 205 colon) | TGI (SNB-19 CNS) | TGI (SNB-75 CNS) | TGI (NCI-H23 lung) | TGI (HT29 colon) | TGI (LOX IMVI melanoma) | TGI (BT-549 breast) | TGI (UO-31 renal) | TGI (SR leukemia) | GI50 (KM12 colon) | GI50 (UO-31 renal) | GI50 (COLO 205 colon) | GI50 (SNB-19 CNS) | GI50 (SNB-75 CNS) | GI50 (HT29 colon) | GI50 (LOX IMVI melanoma) | GI50 (BT-549 breast) | GI50 (NCI-H23 lung) | GI50 (SR leukemia)
1 | COc1ccc(/C=C/c2nccc3ccccc23)cc1OC | > 10 µM | > 10 µM | > 10 µM | > 10 µM | > 10 µM | > 10 µM | > 10 µM | > 10 µM | – | – | – | – | – | – | – | – | – | – | – | –
2 | C=CCOCCCCC(C(C)=O)C(=O)OC (centres undefined) | > 100 µM | > 100 µM | > 100 µM | > 100 µM | > 100 µM | > 100 µM | > 100 µM | – | > 100 µM | > 100 µM | – | – | – | – | – | – | – | – | – | –
3 | CC(C)(C)C1C=C(Sc2ccccc2)C(=O)O1 (centres undefined) | > 100 µM | 54.4 µM | > 100 µM | 83.8 µM | > 100 µM | > 100 µM | > 100 µM | – | 92.1 µM | – | – | – | – | – | – | – | – | – | – | –
4 | O=C1CCC2(c3ccc(F)cc3)Nc3cc(Cl)ccc3N12 (centres undefined) | > 100 µM | > 100 µM | > 100 µM | > 100 µM | > 100 µM | > 100 µM | > 100 µM | – | > 100 µM | > 100 µM | – | – | – | – | – | – | – | – | – | –
5 | CC(C)C(=O)NC(=S)Nc1ccc([N+](=O)[O-])cc1C#N | > 100 µM | 52.7 µM | > 100 µM | > 100 µM | > 100 µM | > 100 µM | > 100 µM | – | > 100 µM | > 100 µM | – | – | – | – | – | – | – | – | – | –
6 | CCOC(=O)C1=C(OC(OCC)C(CC)[Se]c2ccccc2)CCCC1 (centres undefined) | > 100 µM | > 100 µM | > 100 µM | 54.8 µM | 25.5 µM | 62 µM | 18.7 µM | – | > 100 µM | – | – | – | – | – | – | – | – | – | – | –
7 | Cc1cc2c(cc1C)[n+](=O)c(C(=O)C/C(=N/NC(=O)CC#N)C(=O)Nc1ccccc1C(F)(F)F)c(C)n2[O-] | > 100 µM | > 100 µM | > 100 µM | > 100 µM | > 100 µM | > 100 µM | > 100 µM | – | – | – | – | – | – | – | – | – | – | – | – | –
8 | C/C(CC(=O)Nc1cc(Cl)c(Cl)cc1Cl)=N\NC(N)=O | > 100 µM | > 100 µM | – | > 100 µM | > 100 µM | > 100 µM | > 100 µM | – | > 100 µM | – | – | – | – | – | – | – | – | – | – | –
9 | O=C1CCC(=O)N2CCCCN12 | > 100 µM | > 100 µM | > 100 µM | > 100 µM | > 100 µM | > 100 µM | > 100 µM | – | > 100 µM | – | – | – | – | – | – | – | – | – | – | –
10 | Nc1nc(Cl)c2ncn(Cc3ccc(C45CC6CC(CC(C6)C4)C5)c(O)c3)c2n1 | 15.3 µM | 27.8 µM | 22.8 µM | 28.9 µM | – | 46.7 µM | 13 µM | 25.2 µM | 28.1 µM | – | 2.49 µM | 12.7 µM | 5.43 µM | 6.53 µM | 3.88 µM | 4.04 µM | 2.38 µM | 6.82 µM | – | –
11 | Cc1cccc(C)c1NC(=O)C(=O)C1C(=O)NC(=O)NC1=O | > 100 µM | > 100 µM | > 100 µM | – | > 100 µM | > 100 µM | > 100 µM | – | > 100 µM | > 100 µM | – | – | – | – | – | – | – | – | – | –
12 | COc1cc([N+](=O)[O-])cc2c3c(n(C)c12)[C@@]1(C)CCC2c4ccc(OCc5ccccc5)cc4CCC2C1C3 (some centres undefined) | > 100 µM | > 100 µM | > 100 µM | 63.9 µM | > 100 µM | 42.8 µM | > 100 µM | > 100 µM | > 100 µM | – | > 100 µM | > 100 µM | 29.3 µM | 46.5 µM | 23.9 µM | 17.7 µM | 65 µM | > 100 µM | 68.8 µM | –
13 | COC12C=C(C)C(CC1)CC2C(=O)O (centres undefined) | > 100 µM | > 100 µM | > 100 µM | > 100 µM | > 100 µM | > 100 µM | > 100 µM | – | > 100 µM | > 100 µM | – | – | – | – | – | – | – | – | – | –
14 | CSC(C1c2ccccc2N(c2ccc(C)cc2)C2=NC(=O)N(C)C(=O)C21Cl)S(=O)(=O)c1ccc(C)cc1 (centres undefined) | – | 36.6 µM | 85.2 µM | 60 µM | 46.9 µM | 57 µM | 40.3 µM | – | 69.9 µM | – | – | – | – | – | – | – | – | – | – | –
15 | COc1ccc(/C=C/CN(C)CCc2ccccc2)cc1OC | > 100 µM | > 100 µM | > 100 µM | > 100 µM | > 100 µM | > 100 µM | – | – | > 100 µM | – | – | – | – | – | – | – | – | – | – | –
16 | CCCCN=C(NC#N)NCCCC | > 100 µM | 98.9 µM | > 100 µM | > 100 µM | > 100 µM | > 100 µM | – | – | > 100 µM | > 100 µM | – | – | – | – | – | – | – | – | – | –
17 | CCC[CH2][Sn]1([CH2]CCC)[O]Cc2nc(C)ccc2[O]1 | 23 µM | 15.9 µM | 14.9 µM | 18.8 µM | 4.79 µM | 29.1 µM | 3.97 µM | – | 26.1 µM | 12.7 µM | 11.1 µM | 13.3 µM | 4.38 µM | 3.95 µM | 4.63 µM | 12.8 µM | 1.95 µM | – | 1.84 µM | 2.95 µM
18 | NC(CCC(=O)NC(CSSCCCCS(=O)O)C(=O)NCC(=O)O)C(=O)O (centres undefined) | > 100 µM | > 100 µM | > 100 µM | > 100 µM | > 100 µM | > 100 µM | > 100 µM | – | > 100 µM | – | – | – | – | – | – | – | – | – | – | –
19 | COC(=O)C1Cc2c(n(Cc3ccccc3)c3ccccc23)C(CCC(=O)O)N1C(C)C (centres undefined) | > 100 µM | > 100 µM | > 100 µM | > 100 µM | > 100 µM | > 100 µM | > 100 µM | – | > 100 µM | > 100 µM | – | – | – | – | – | – | – | – | – | –
20 | O=C1O[C@@H](c2ccc3c(c2)OCO3)C2C(=O)O[C@@H](c3ccc4c(c3)OCO4)C12 (some centres undefined) | > 100 µM | > 100 µM | > 100 µM | > 100 µM | > 100 µM | > 100 µM | > 100 µM | – | > 100 µM | – | – | – | – | – | – | – | – | – | – | –
21 | CCC[CH2][Sn]([CH2]CCC)([O]C(=O)c1cccnc1SC)[O]C(=O)c1cccnc1SC | 3.08 µM | 2.33 µM | 2.78 µM | 2.02 µM | 2.1 µM | 3.22 µM | 1.37 µM | – | 2.66 µM | – | 1.51 µM | 1.36 µM | 1.09 µM | 1.46 µM | 0.673 µM | 1.61 µM | 0.302 µM | – | 0.771 µM | –
22 | O=C1C2c3[nH]c4ccccc4c3C3CCCCCCC3C2C(=O)N1c1ccccc1 (centres undefined) | > 100 µM | 28.6 µM | – | 5.33 µM | 70.2 µM | > 100 µM | 17.2 µM | – | – | 48.4 µM | – | – | – | – | – | – | – | – | – | –
23 | O=C(O)C(CO)NC(=O)n1c2ccccc2c2ccccc21 (centres undefined) | > 100 µM | > 100 µM | > 100 µM | – | > 100 µM | > 100 µM | > 100 µM | – | – | > 100 µM | – | – | – | – | – | – | – | – | – | –
